The numbers were not newly measured in patent publication US20210379001A1, “SUPPLEMENT INCLUDING GAMMA-AMINOBUTYRIC ACID FOR RESTORING GROWTH HORMONE LEVELS” (1198966 B.C. LTD., priority 2020, published 2021), which cites them from elsewhere.

For this data set, the system named is GABA levels in rat striatal tissue and striatal extracellular fluid.

As for `NC(=O)CC[C@H](N)C(=O)O` [L-Glutamine], the “striatal GABA levels” value (2,5 h after oral 2.0 g/kg of glutamine, vehicle-treated rats 1.76+/−0.04) was 2.00 ± 0.15 µmol/g. Where the note is “ECF GABA, NMDA alone 70%, P<0.05”, the “response evoked by NMDA, over baseline” value is given as 120%. Besides, the “increase of ECF GABA concentrations” value (rat striatal extracellular fluid, P<0.05) is 30%.
